ChEMBL document CHEMBL1764955, “The synthesis and evaluation of indolylureas as PKCα inhibitors” (Bioorg Med Chem, 2011)

What was measured:
[1] = target: cAMP-dependent protein kinase catalytic subunit beta (Homo sapiens, UniProt P22694); assay: Inhibition of PKA activity using kemptide as a substrate in presence of 50 uM ATP by mass spectrometry
[2] = target: Protein kinase C alpha type (Homo sapiens, UniProt P17252); assay: Inhibition of human PKCalpha activity using neurogranin as a substrate in presence of 50 uM ATP by mass spectrometry

SMILES | IC50 [1] [µM] | IC50 [2] [µM]
CN(C)CCCn1cc(NC(=O)Nc2nccc(-c3ccccc3)n2)c2ccccc21 | 23.6 | 0.095
CCN(CC)CCCn1cc(NC(=O)Nc2cccc(-c3ccccc3)n2)c2ccccc21 | – | 2.68
CCN(CC)CCCn1cc(NC(=O)Nc2ccnc(-c3ccccc3)n2)c2ccccc21 | – | 4.81
CCN(CC)CCCn1cc(NC(=O)Nc2cncc(-c3ccccc3)n2)c2ccccc21 | – | 8.07
